Data as given in patent US20210255193A1, “LYSINE REACTIVE PROBES AND USES THEREOF” (The Scripps Research Institute, priority 2017, published 2021).

Key:
Assay in all cases: competitive isoTOP-ABPP
Assay type in all cases: binding
[1] = biological target: T1, CPOX Coproporphyrinogen-III oxidase, mitochondrial (Homo sapiens, UniProt P36551)
T1 construct: isoTOP-ABPP experiments performed in cell lysates (in vitro); endogenous in cells; host or cells: soluble proteome of human cancer cell lines (MDA-MB-231; Ramos and Jurkat also prepared)
T1 sequence (P36551 111-454): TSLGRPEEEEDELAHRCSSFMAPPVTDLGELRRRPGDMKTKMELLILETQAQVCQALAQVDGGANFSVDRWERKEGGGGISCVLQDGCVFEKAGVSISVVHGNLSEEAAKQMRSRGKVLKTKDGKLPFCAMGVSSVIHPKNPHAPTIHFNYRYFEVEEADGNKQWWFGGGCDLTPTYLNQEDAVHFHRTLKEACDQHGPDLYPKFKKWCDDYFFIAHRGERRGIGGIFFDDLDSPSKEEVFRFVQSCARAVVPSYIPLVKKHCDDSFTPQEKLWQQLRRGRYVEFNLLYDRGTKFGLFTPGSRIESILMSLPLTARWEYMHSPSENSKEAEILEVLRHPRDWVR
Description: (§1) In vitro covalent fragment treatment for isoTOP-ABPP. All compounds were made up as solutions in DMSO (100×) and were used at a final concentration of 50 μM for activated esters and 100 μM for guanidinylating agents. For each profiling sample, 0.5 ml of lysate was treated with 5 μl of the 100× compound stock solution or 5 μl of DMSO. Samples were treated with activated esters for
(§2) STP-alkyne labeling and click chemistry. For concentration-dependent reactivity measurements by isoTOP-ABPP, 0.5 ml proteome aliquots were treated at ambient temperature with 1 mM STP-alkyne 1 (5 μl of 100 mM stock in DMSO) and 0.1 mM STP alkyne 1 (5 μl of 10 mM stock in DMSO), respectively. For competitive isoTOP-ABPP, after in vitro fragment treatment (detailed above), the samples were labeled for 1 h at ambient temperature with 0.1 mM STP-alkyne 1 (5 μl of 10 mM stock in DMSO). Samples were conjugated by copper-mediated azide-alkyne cycloaddition (CuAAC) to either the light (1 mM STP-alkyne or fragment treated) or heavy (0.1 mM STP-alkyne or DMSO treated) TEV tags (10 μl of 5 mM stocks in DMSO, final concentration=100 μM) using tris(2-carboxyethyl)phosphine hydrochloride
(§3) R value calculation and processing. The ratios of light and heavy MS1 peaks for each unique peptide were quantified with a CIMAGE software using default parameters (3 MS1 acquisitions per peak and signal to noise threshold set to 2.5). For reactivity measurements by isoTOP-ABPP, the R value was calculated from the ratio of MS1 peak areas, comparing the 1 mM STP alkyne sample (light TEV tag) with the 0.1 mM STP alkyne sample (heavy TEV tag). For competitive isoTOP-ABPP, the R value was calculated from the ratio of MS1 peak areas, comparing the DMSO treated sample (heavy TEV tag) with the compound treated sample (light TEV tag). […] Ratios for unique peptide entries are calculated for each experiment; overlapping peptides with the same modified lysine (for example, different charge states, MudPIT chromatographic steps or tryptic termini) are grouped together and the median ratio is reported as the final ratio (R). The peptide ratios reported by CIMAGE were further filtered to ensure the removal or correction of low-quality ratios in each individual data set. The quality filters applied were the following: removal of half tryptic peptides; for ratios with high standard deviations from the median (90% of the median or above) the lowest ratio was taken instead of the median; removal of peptides with R=20 and only a single MS2 event triggered during the elution of the parent ion; manual annotation of all the peptides with ratios of 20, removing any peptides with low quality elution profiles that remained after the previous curation steps (only done for competitive isoTOP-ABPP).
(§4) Cross-data processing for fragment screening. For compound treated samples, biological replicates of the same condition were averaged, if the standard deviation was below 60% of the mean; otherwise, for lysines with at least one R value <4 for a particular compound, the lowest value of the ratio set was taken. For lysines, where all R values for a particular compound were ≥4, the average was reported. For peptides containing several possible modified lysines, the lysine with the highest number of quantification events was used for analysis and the remaining, redundant peptides were reported as alternative modification sites. Peptides included in the aggregate dataset (those used for further bioinformatics and statistical analyses) were required to have been quantified in 2 experiments for competitive isoTOP-ABPP. Lysines were categorized as liganded, if they had at least one ratio R≥4 (hit fragments). For liganded lysines with R=20 for all liganding events, lysines were required to have been quantified with R=20 in two separate experiments and were further required to have been quantified with R<20 in one additional experiment.

[2] = biological target: T2, NUDT2 Bis(5-nucleosyl)-tetraphosphatase (Homo sapiens, UniProt P50583); conditions: for isoTOP-ABPP ratio, lysine P50583_K89: possible other lysine P50583_K87; for reaction with K89 by isoTOP-ABPP: NUDT2 K89
T2 construct: isoTOP-ABPP experiments performed in cell lysates (in vitro); endogenous in cells
Description: as §1, §2, §3, §4

[3] = biological target: T3, HDHD3 Haloacid dehalogenase-like hydrolase domain-containing protein 3 (Homo sapiens, UniProt Q9BSH5)
T3 construct: isoTOP-ABPP experiments performed in cell lysates (in vitro); endogenous in cells; host or cells: soluble proteome of human cancer cell lines (MDA-MB-231; Ramos and Jurkat also prepared)
T3 sequence (Q9BSH5 1-251): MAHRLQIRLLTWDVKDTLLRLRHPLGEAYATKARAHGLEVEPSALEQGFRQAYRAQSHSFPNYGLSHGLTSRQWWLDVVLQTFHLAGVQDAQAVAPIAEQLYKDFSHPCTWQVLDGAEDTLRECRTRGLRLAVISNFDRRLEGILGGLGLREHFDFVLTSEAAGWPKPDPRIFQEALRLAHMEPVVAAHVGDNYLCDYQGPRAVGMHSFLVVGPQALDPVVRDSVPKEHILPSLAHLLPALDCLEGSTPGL
Description: as §1, §2, §3, §4

[4] = biological target: T4, ECH1 Delta(3,5)-Delta(2,4)-dienoyl-CoA isomerase, mitochondrial (Homo sapiens, UniProt Q13011)
T4 construct: isoTOP-ABPP experiments performed in cell lysates (in vitro); endogenous in cells; host or cells: soluble proteome of human cancer cell lines (MDA-MB-231, Ramos, Jurkat)
T4 sequence (Q13011 34-328): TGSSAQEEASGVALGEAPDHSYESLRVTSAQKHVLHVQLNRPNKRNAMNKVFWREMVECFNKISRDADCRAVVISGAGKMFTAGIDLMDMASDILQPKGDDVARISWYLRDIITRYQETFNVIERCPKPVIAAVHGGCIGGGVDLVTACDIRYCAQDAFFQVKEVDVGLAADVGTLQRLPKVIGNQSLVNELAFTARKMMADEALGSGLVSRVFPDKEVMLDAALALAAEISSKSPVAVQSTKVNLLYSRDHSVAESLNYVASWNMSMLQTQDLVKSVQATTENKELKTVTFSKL
Description: as §1, §2, §3, §4

T2 sequence (P50583 whole entry): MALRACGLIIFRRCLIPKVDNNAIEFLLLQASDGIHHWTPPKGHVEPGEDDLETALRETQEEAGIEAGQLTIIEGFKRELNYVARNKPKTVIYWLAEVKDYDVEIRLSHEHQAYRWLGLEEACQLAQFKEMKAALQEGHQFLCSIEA

Row | Structure (SMILES) | isoTOP-ABPP ratio, lysine P36551_K404 ([1]; 50 uM_231_sol_in vitro) | isoTOP-ABPP ratio, lysine P50583_K89 ([2]; 50 uM_231_sol_in vitro) | isoTOP-ABPP ratio, lysine Q9BSH5_K15 ([3]; 50 uM_231_sol_in vitro) | isoTOP-ABPP ratio, lysine Q13011_K112 ([4]; 50 uM_231_sol_in vitro) | isoTOP-ABPP ratio, lysine P36551_K404 ([1]; 100 uM_231_sol_in vitro) | isoTOP-ABPP ratio, lysine P50583_K89 ([2]; 100 uM_231_sol_in vitro) | reaction with K89 by isoTOP-ABPP [2] | isoTOP-ABPP ratio, lysine Q9BSH5_K15 ([3]; 100 uM_231_sol_in vitro) | isoTOP-ABPP ratio, lysine Q13011_K112 ([4]; 100 uM_231_sol_in vitro)
1 | N#Cc1ccc(C(=O)Oc2ccc([N+](=O)[O-])cc2[N+](=O)[O-])cc1 [fragment 44, 2,4-Dinitrophenyl 4-cyanobenzoate] | 1.0 | 0.9 | 20.0 | 0.9 | – | – | – | – | –
2 | O=C(CCc1ccc2c(c1)OCO2)Oc1ccc([N+](=O)[O-])cc1[N+](=O)[O-] [fragment 45, 2,4-Dinitrophenyl 3-(benzo[d][1,3]dioxol-5-yl)propanoate] | 1.2 | 1.7 | 3.4 | 1.0 | – | – | – | – | –
3 | O=C(ON1C(=O)CCC1=O)c1cc(C(F)(F)F)cc(C(F)(F)F)c1 [fragment 46, 3,5-Bis(trifluoromethyl)benzoic acid NHS ester] | 1.0 | 1.1 | 1.4 | 0.8 | – | – | – | – | –
4 | O=C(Oc1c(F)c(F)c(C(F)(F)F)c(F)c1F)c1cc(C(F)(F)F)cc(C(F)(F)F)c1 [fragment 47, 2,3,5,6-Tetrafluoro-4-(trifluoromethyl)phenyl 3,5-bis(trifluoromethyl)benzoate] | 1.5 | 1.0 | 0.9 | 1.0 | – | – | – | – | –
5 | O=C(Oc1c(F)c(F)cc(F)c1F)c1cc(C(F)(F)F)cc(C(F)(F)F)c1 [fragment 48, 2,3,5,6-Tetrafluorophenyl 3,5-bis(trifluoromethyl)benzoate] | 1.0 | 1.0 | 1.0 | 1.5 | – | – | – | – | –
6 | COC(=O)NC(=NC(=O)OCC1c2ccccc2-c2ccccc21)n1cccn1 [fragment 49, N-Methoxycarbonyl-N′-9-fluorenylmethoxycarbonyl-pyrazole-1-carboxamidine] | – | – | – | – | 2.5 | 20.0 | preferentially reacting | 3.5 | 1.1
7 | CC(C)(C)OC(=O)N=C(NC(=O)OC(C)(C)C)n1cccn1 [fragment 50, reference compound] | – | – | – | – | 1.8 | 20.0 | preferentially reacting | 2.8 | 1.3
8 | NC(=O)c1cc(C(F)(F)F)cc(C(F)(F)F)c1 [fragment 51, reference compound] | 0.9 | 0.9 | 0.8 | 1.0 | – | – | – | – | –
